Laboratory results published in patent US5602156A, “Method for inhibiting metalloproteinase expression” (The United States of America as represented by the …, priority 1994, dated 1997).
Entries after “also recorded” stand apart in the source; their conditions may differ.

Assays:
[1] = test system: receptor-operated and voltage-gated calcium influx; conditions: cited from earlier work
phospholipase C-γ = conditions: cited from earlier work
MMP-2 [2] = assay: Gelatin zymography of conditioned media from human cancer cell lines (gelatinase activity); type: cell-based
Protocol: (§1) Conditioned media for zymogram and Western blot analysis were produced under serum-free conditions. Cells (2 million) were plated in 25 cm^2 flasks in serum-containing medium and cultured overnight. Serum-containingmedium was removed and the cell monolayers were washed twice with DMEM/ITS (DMEM containing insulin (5 μg/mL), transferrin (5 μg/mL), and selenium (5 ng/mL)). The resultant cells were fed with 3 mL of DMEM/ITS and additives as described in the Examples for two 24 hour periods. Conditioned media samples were collected at 24 hours and cells were refed with fresh DMEM/ITS containing the described additives for an additional 24 hours. Conditioned media samples were centrifuged to remove cells and debris then frozen at -20° C. until use. Freeze and thaw cycles of the conditioned media were limited to no more than two.
Quantitation of the effect was evaluated by laser densitometry of the resultant zymograms.
Aliquots of conditioned medium (15 μL) were electrophoresed on gelatin-containing 10% PAGE gels under nonreducing but denaturing conditions. These conditions allow the different gelatin-degrading species (MMPs) to separate by size. […] Bands of clearing, seen after Coomassie blue staining correspond to areas of gelatinase activity.
OVCAR3 conditioned media samples were concentrated 10-fold prior to zymography.
Known concentrated conditioned medium from HT1080 cells was used for identification of the gelatinase species as marked in FIG. 1A: 92 kDa, gelatinase B/MMP-9; 72 kDa, gelatinase A/MMP-2 latent form; 65 kDa intermediate and 62 kDa activated forms of MMP-2. The activated form of MMP-2 results from cleavage of the amino terminal domain.
Lane 1 corresponds to cells treated only with 0.05% DMSO as a control.
Quantitation of the zymograms in FIGS. 1A-1C were carded out using laser densitometry.
The effect of structural analogs on the gelatinase activity of A2058 cells was similarly evaluated.

arachidonic acid release = conditions: cited from earlier work
[3] = test system: gelatinase activity of the metalloproteinases; assay: Zymogram slices incubated with compound 1 or calcium chelators in the activating buffer (direct inhibition of enzyme); type: biochemical, human; conditions: 10 mM chelator in incubation buffer; data not shown
Protocol: See, Felder, et al., J. Pharm. Exp. Therapeut. 257:967-971 (1991) and unpublished observations by the inventors.
Gelatin zymography was carded out using control conditioned media from A2058 cells and HT1080 cells in the absence of compound 1. Zymogram slices were incubated in low salt collagenase buffer with control (DMSO 0.1%), an inhibitory dose of compound 1 (20 μM), or the calcium chelators EGTA (10 mM) and EDTA (10 mM). […] See, Brown, et al., Cancer Res. 50:6184-6191 (1990). […] Lane 1 for each of the zymograms corresponds to A2058 while lane 2 corresponds to HT1080.

[4] = test system: gelatinase activity of the metalloproteinases; conditions: EDTA in incubation buffer; shown by others; cited from earlier work
MMP-2 [5] = conditions: cited from earlier work; for MMP-2 induction/inhibition: human melanoma and fibrosarcoma cells
[6] = test system: interstitial collagenase, MMP-1; conditions: human melanoma and fibrosarcoma cells; cited from earlier work
MMP-2 [7] = assay: Gelatin zymography of HT1080 cells, compound 1 with or without TGF-β1 (densitometry); type: cell-based, human; conditions: TGF-β alone (0 hr compound 1), control band = 100%
Protocol: as §1
(§2) A2058 human melanoma cells, human HT1080 fibrosarcoma cells, and OVCAR3 human ovarian cancer cells were incubated with increasing concentrations of compound 1 (0.2-20 μM) or DMSO control (0.05%) and subjected to gelatin zymography. Aliquots of conditioned medium (15 μL) were electrophoresed on gelatin-containing 10% PAGE gels under nonreducing but denaturing conditions. These conditions allow the different gelatin-degrading species (MMPs) to separate by size. The enzymes renature after removal of the SDS by incubation of the gel with 2.5 % Triton X-100, and degrade the gelatin substrate present in the polyacrylamide gel upon overnight incubation in low salt collagenase buffer. Bands of clearing, seen after Coomassie blue staining correspond to areas of gelatinase activity.
(§3) A2058 and HT1080 cells were incubated with compound 1 (2 μM), with or without TGF-β1 (5 ng/mL) for 24 and 48 hours prior to harvest of conditioned media. Aliquots were subjected to gelatin zymography as described in Example 1. Known concentrated conditioned medium from HT1080 cells was used for identification of the gelatinase species (92 kDa, gelatinase B/MMP-9; 72 kDa, gelatinase A/MMP-2 latent form; 65 kDa intermediate and 62 kDa activated forms of MMP-2).
(§4) Lane 1 is the control resulting from treatment of the cells with 0.1% DMSO. Lanes 2 and 3 correspond to those cells which are treated with 2 μM compound 1 in the absence of TGF-β1 for 24 and 48 hours, respectively. Lane 4 corresponds to cells which have been treated with TGF-β1 in the absence of compound 1. Lane 5 corresponds to cells which have been treated with TGF-β1 for 48 hours with compound 1 being added to the incubation mixture for the final 24 hours. Lane 6 corresponds to cells which have been treated for 48 hours with both TGF-β1 and compound 1.
(§5) *The control band was defined as 100% gelatinase activity and the other
(§6) bands were normalized to it. Numbers reflect triplicate measurements from
(§7) each zymogram band of representative zymograms. Standard deviations, not

MMP-2 [8] = assay: Gelatin zymography of A2058 cells, compound 1 with or without TGF-β1 (densitometry); type: cell-based, human; conditions: TGF-β1 alone (0 hr compound 1), control band = 100%
Protocol: as §1, §2, §3, §4, §5, §6, §7

MMP-9 = assay: Gelatin zymography of HT1080 cells, compound 1 with or without TGF-β1 (densitometry), 92 kDa; type: cell-based, human; conditions: TGF-β alone (0 hr compound 1), control band = 100%
Protocol: as §1, §2, §3, §4, §5, §6, §7

gelatinase activity = assay: Gelatin zymography of A2058 and HT1080 cells, compound 1 with or without TGF-β1 (results in words); type: cell-based, human; conditions: TGF-β1 (5 ng/mL) alone for 48 hr
Protocol: as §3, §4

Molecule: COc1ccc(CCCOC(Cn2ccnc2)c2ccc(OC)cc2)cc1 (stereo not shown) [Compound 2, reference compound]
- calcium influx inhibition [1]: inhibited; also recorded: effective inhibitor of receptor-operated calcium channels with reactivity against some voltage-gated calcium channels
- tyrosine phosphorylation with activation of phospholipase C-γ (phospholipase C-γ): inhibited
- MMP-2 activity (MMP-2 [2]; A2058, 10 μM (FIG. 1E)): reduced MMP-2 activity
- inhibition of MMP-2 gelatinase activity (FIG. 1) (MMP-2 [2]; zymograms of FIG. 1): inhibition
- arachidonic acid release (arachidonic acid release): inhibited

Molecule: O=C(O)CN(CCN(CC(=O)O)CC(=O)O)CC(=O)O [EDTA, ethylenediamine tetraacetic acid, reference compound]
- requirement for metal ion in the activation buffer [3]: confirmed the requirement for metal ion (Ca^++) in the activation buffer
- inhibition of gelatinolytic activity [4]: inhibit gelatinolytic activity

Molecule: O=C(O)CN(CCOCCOCCN(CC(=O)O)CC(=O)O)CC(=O)O [EGTA, ethylenebis(oxyethylenenitrilo)tetraacetic acid, reference compound]
- requirement for metal ion in the activation buffer [3]: confirmed the requirement for metal ion (Ca^++) in the activation buffer

Molecule: CCCCCCCCCCCCCC(=O)OC1C(C)C2(O)C(C=C(CO)CC3(O)C(=O)C(C)=CC32)C2C(C)(C)C12OC(C)=O (stereo not shown) [TPA, 12-O-tetradecanoylphorbol-13-acetate, reference compound]
- MMP-2 induction/inhibition (MMP-2 [5]): inhibition of MMP-2
- MMP-1 induction/inhibition [6]: induction of MMP-1

Molecule: TGF-β1: transforming growth factor-β1
- production of MMP-2 by stimulation of RNA expression (MMP-2 [5]; cell type not stated): stimulate production of MMP-2 by stimulation of RNA expression
- MMP-2 induction/inhibition (MMP-2 [5]): induction of MMP-2
- gelatinase activity, 65 + 62 kDa (MMP-2 [7]): 192%
- gelatinase activity, 72 kDa (MMP-2 [7]): 47%
- gelatinase activity, 65 + 62 kDa (MMP-2 [8]): 0%
- gelatinase activity, 72 kDa (MMP-2 [8]): 68%
- gelatinase activity, 92 kDa (MMP-9): 64%
- MMP-1 induction/inhibition [6]: inhibition of the interstitial collagenase, MMP-1
- gelatinase activity (gelatinase activity): increased gelatinase activity
